In patent US20110160193A1, “New Benzothiazinone Derivatives and Their Use as Antibacterial Agents” (Leibniz Institute for Natural Product Research and …, priority 2006, published 2011):
Values after ≈ are worked out from the molar mass of the structure shown. Where two headings read alike, the source gives them in different places.

Experiments:
M. vaccae IMET 1010670 = test: MIC by micro broth dilution method in Mueller-Hinton broth (NCCLS); format: cell-based
M. fortuitum B = test: as above; format: cell-based
[1] = system: Mycobacterium smegmatis SG 987; test: as above; format: cell-based
[2] = system: Mycobacterium tuberculosis H37Rv; test: Murine TB model, hematogenously disseminated tuberculosis; format: in vivo, BALB/c line mice; details: 10 animals per group
[3] = system: Mycobacterium tuberculosis clinical isolate 6341; test: MIC and MBC in liquid Shkolnikova medium / solid Lowenstein-Jensen medium; format: cell-based
[4] = Toxicity after per os administration; format: in vivo; details: mice
Experimental: The compound of the invention (especially compound no 2=example 1 in the embodiments), is non toxic after per os administration of doses ranging up to 2000 mg/kg was the compound was well endured by animals in the first and 24 next coming hours after introducing. […] LD50 for compound 2 is >2000 mg/kg.

[5] = Mycolicibacterium vaccae, IMET1010670
[6] = Mycolicibacterium smegmatis, SG987

Cc1c([N+](=O)[O-])cc2c(=O)nc(N3CCC4(CC3)OCCO4)sc2c1[N+](=O)[O-] [Compound 8, 2-(1,4-dioxa-8-azaspiro[4.5]dec-8-yl)-7-methyl-6,8-dinitro-1,3-benzothiazin-4-one]
MIC (M. vaccae IMET 1010670; [5]): 0.025 µg/mL (≈ 0.0612 µM)
MIC (M. fortuitum B; Mycolicibacterium fortuitum): 0.025 µg/mL (≈ 0.0612 µM)
MIC [1, 6]: 0.4 µg/mL (≈ 0.979 µM)
melting point: 207 to 210 °C

NNC(=O)c1ccncc1 [Isoniazid, reference compound]
Survival of animals ([2]; day of treatment 1, 25 mg/kg): 10
Survival of animals ([2]; day of treatment 2, 25 mg/kg): 10
Survival of animals ([2]; day of treatment 3, 25 mg/kg): 10
Survival of animals ([2]; day of treatment 4, 25 mg/kg): 10
Survival of animals ([2]; day of treatment 5, 25 mg/kg): 10
Survival of animals ([2]; day of treatment 6, 25 mg/kg): 10
Survival of animals ([2]; day of treatment 7, 25 mg/kg): 10
Survival of animals ([2]; day of treatment 8, 25 mg/kg): 10
Survival of animals ([2]; day of treatment 9, 25 mg/kg): 10
Survival of animals ([2]; day of treatment 10, 25 mg/kg): 10
Survival of animals ([2]; day of treatment 11, 25 mg/kg): 10
Survival of animals ([2]; day of treatment 12, 25 mg/kg): 10
Survival of animals ([2]; day of treatment 13, 25 mg/kg): 10
Survival of animals ([2]; day of treatment 14, 25 mg/kg): 10
Survival of animals ([2]; day of treatment 15, 25 mg/kg): 10
Survival of animals ([2]; day of treatment 16, 25 mg/kg): 10
Survival of animals ([2]; day of treatment 17, 25 mg/kg): 10
Survival of animals ([2]; day of treatment 18, 25 mg/kg): 10
Survival of animals ([2]; day of treatment 19, 25 mg/kg): 10
Survival of animals ([2]; day of treatment 20, 25 mg/kg): 10
Survival of animals ([2]; day of treatment 21, 25 mg/kg): 10
Survival of animals ([2]; day of treatment 22, 25 mg/kg): 10
Survival of animals ([2]; day of treatment 23, 25 mg/kg): 10
Survival of animals ([2]; day of treatment 24, 25 mg/kg): 10
Survival of animals ([2]; day of treatment 25, 25 mg/kg): 10
Survival of animals ([2]; day of treatment 26, 25 mg/kg): 10
Survival of animals ([2]; day of treatment 27, 25 mg/kg): 100%

CC1OC2(CCN(c3nc(=O)c4cc(C(F)(F)F)cc([N+](=O)[O-])c4s3)CC2)OC1C (stereo not drawn) [Compound 5, 2-(2,3-dimethyl-1,4-dioxa-8-azaspiro[4.5]dec-8-yl)-8-nitro-6-(trifluoromethyl)-1,3-benzothiazin-4-one]
MIC [3]: 0.39 µg/mL (≈ 0.876 µM)

CC1COC2(CCN(c3nc(=O)c4cc([N+](=O)[O-])cc([N+](=O)[O-])c4s3)CC2)O1 (stereo not drawn) [Compound 4, 2-(2-methyl-1,4-dioxa-8-azaspiro[4.5]decyl)-6,8-dinitro-1,3-benzothiazin-4-one]
MIC (M. vaccae IMET 1010670; M. vaccae): 0.003 µg/mL (≈ 0.00735 µM)
MIC (M. fortuitum B; M. fortuitum): 0.003 µg/mL (≈ 0.00735 µM)
MIC ([1]; M. smegmatis): 0.2 µg/mL (≈ 0.49 µM)

CCOC1(OCC)CCN(c2nc(=O)c3cc([N+](=O)[O-])cc([N+](=O)[O-])c3s2)CC1 [Compound 6, 2-(4,4-diethoxypiperidin-1-yl)-6,8-dinitro-1,3-benzothiazin-4-one]
melting point: 179 to 181 °C

N#Cc1cc([N+](=O)[O-])c2sc(N3CCC4(CC3)OCCO4)nc(=O)c2c1 [Compound 9, 2-(1,4-dioxa-8-azaspiro[4.5]dec-8-yl)-8-nitro-4-oxo-1,3-benzothiazine-6-carbonitrile]
melting point: 217 to 220 °C

O=c1nc(N2CCC3(CC2)OCCO3)sc2c([N+](=O)[O-])cc([N+](=O)[O-])cc12 [Compound 3, 2-(1,4-dioxa-8-azaspiro[4.5]dec-8-yl)-6,8-dinitro-1,3-benzothiazin-4-one]
MIC (M. vaccae IMET 1010670; [5]): 0.0015 µg/mL (≈ 0.0038 µM)
MIC (M. fortuitum B; Mycolicibacterium fortuitum): 0.006 µg/mL (≈ 0.0152 µM)
MIC [1, 6]: 0.2 µg/mL (≈ 0.507 µM)
melting point: 271 to 273 °C

N#Cc1cc([N+](=O)[O-])c2sc(N3CCC4(CC3)OCCCO4)nc(=O)c2c1 [Compound 11, 2-(1,5-dioxa-9-azaspiro[5.5]undec-9-yl)-8-nitro-4-oxo-1,3-benzothiazine-6-carbonitrile]
MIC (M. vaccae IMET 1010670; Mycolicibacterium vaccae, IMET1010670, M. vaccae, read-out: MIC): 0.00625 µg/mL (≈ 0.0161 µM)
MIC (M. fortuitum B; Mycolicibacterium fortuitum, M. fortuitum, read-out: MIC): 0.025 µg/mL (≈ 0.0644 µM)
MIC ([1]; Mycolicibacterium smegmatis, SG987, M. smegmatis, read-out: MIC): 0.05 µg/mL (≈ 0.129 µM)
melting point: 230 to 232 °C

CC1COC2(CCN(c3nc(=O)c4cc(C(F)(F)F)cc([N+](=O)[O-])c4s3)CC2)O1 (stereo not drawn) [Compound 2, 2-(2-methyl-1,4-dioxa-8-azaspiro[4.5]dec-8-yl)-8-nitro-6-(trifluoro-methyl)-1,3-benzothiazin-4-one]
Toxicity after per os administration ([4]; doses ranging up to 2000 mg/kg, 7 days of investigations): non toxic
LD50 ([4]; per os): > 2000 mg/kg
Survival of animals ([2]; day of treatment 1, 12 mg/kg): 10
Survival of animals ([2]; day of treatment 1, 25 mg/kg): 10
Survival of animals ([2]; day of treatment 2, 12 mg/kg): 10
Survival of animals ([2]; day of treatment 2, 25 mg/kg): 10
Survival of animals ([2]; day of treatment 3, 12 mg/kg): 10
Survival of animals ([2]; day of treatment 3, 25 mg/kg): 10
Survival of animals ([2]; day of treatment 4, 12 mg/kg): 10
Survival of animals ([2]; day of treatment 4, 25 mg/kg): 10
Survival of animals ([2]; day of treatment 5, 12 mg/kg): 10
Survival of animals ([2]; day of treatment 5, 25 mg/kg): 10
Survival of animals ([2]; day of treatment 6, 12 mg/kg): 10
Survival of animals ([2]; day of treatment 6, 25 mg/kg): 10
Survival of animals ([2]; day of treatment 7, 12 mg/kg): 10
Survival of animals ([2]; day of treatment 7, 25 mg/kg): 10
Survival of animals ([2]; day of treatment 8, 12 mg/kg): 10
Survival of animals ([2]; day of treatment 8, 25 mg/kg): 10
Survival of animals ([2]; day of treatment 9, 12 mg/kg): 10
Survival of animals ([2]; day of treatment 9, 25 mg/kg): 10
Survival of animals ([2]; day of treatment 10, 12 mg/kg): 10
Survival of animals ([2]; day of treatment 10, 25 mg/kg): 10
Survival of animals ([2]; day of treatment 11, 12 mg/kg): 10
Survival of animals ([2]; day of treatment 11, 25 mg/kg): 10
Survival of animals ([2]; day of treatment 12, 12 mg/kg): 10
Survival of animals ([2]; day of treatment 12, 25 mg/kg): 10
Survival of animals ([2]; day of treatment 13, 12 mg/kg): 10
Survival of animals ([2]; day of treatment 13, 25 mg/kg): 10
Survival of animals ([2]; day of treatment 14, 12 mg/kg): 10
Survival of animals ([2]; day of treatment 14, 25 mg/kg): 10
Survival of animals ([2]; day of treatment 15, 12 mg/kg): 10
Survival of animals ([2]; day of treatment 15, 25 mg/kg): 10
Survival of animals ([2]; day of treatment 16, 12 mg/kg): 10
Survival of animals ([2]; day of treatment 16, 25 mg/kg): 10
Survival of animals ([2]; day of treatment 17, 12 mg/kg): 10
Survival of animals ([2]; day of treatment 17, 25 mg/kg): 10
Survival of animals ([2]; day of treatment 18, 12 mg/kg): 10
Survival of animals ([2]; day of treatment 18, 25 mg/kg): 10
Survival of animals ([2]; day of treatment 19, 12 mg/kg): 10
Survival of animals ([2]; day of treatment 19, 25 mg/kg): 10
Survival of animals ([2]; day of treatment 20, 12 mg/kg): 10
Survival of animals ([2]; day of treatment 20, 25 mg/kg): 10
Survival of animals ([2]; day of treatment 21, 12 mg/kg): 10
Survival of animals ([2]; day of treatment 21, 25 mg/kg): 10
Survival of animals ([2]; day of treatment 22, 12 mg/kg): 10
Survival of animals ([2]; day of treatment 22, 25 mg/kg): 10
Survival of animals ([2]; day of treatment 23, 12 mg/kg): 10
Survival of animals ([2]; day of treatment 23, 25 mg/kg): 10
Survival of animals ([2]; day of treatment 24, 12 mg/kg): 10
Survival of animals ([2]; day of treatment 24, 25 mg/kg): 10
Survival of animals ([2]; day of treatment 25, 12 mg/kg): 10
Survival of animals ([2]; day of treatment 25, 25 mg/kg): 10
Survival of animals ([2]; day of treatment 26, 12 mg/kg): 10
Survival of animals ([2]; day of treatment 26, 25 mg/kg): 10
Survival of animals ([2]; day of treatment 27, 12 mg/kg): 100%
Survival of animals ([2]; day of treatment 27, 25 mg/kg): 100%

O=c1nc(N2CCC3(CC2)OCCCCO3)sc2c([N+](=O)[O-])cc([N+](=O)[O-])cc12 [Compound 7, 2-(7,12-dioxa-3-azaspiro[5.6]dodec-3-yl)-6,8-dinitro-1,3-benzothiazin-4-one]
MIC (M. vaccae IMET 1010670; [5]): 0.003 µg/mL (≈ 0.0071 µM)
MIC (M. fortuitum B; Mycolicibacterium fortuitum): 0.003 µg/mL (≈ 0.0071 µM)
MIC [1, 6]: 0.78 µg/mL (≈ 1.85 µM)
melting point: 193 to 195 °C
